# Measurements: patent publication US20250154180A1, “CRK-LIKE (CRKL) ADAPTOR PROTEIN INHIBITORS AND METHODS OF MAKING AND USING THE SAME” (Rutgers, The State University of New Jersey, priority 2022, published 2025)
# Assays:
# [1] = molecular target: T1, CrkL (Homo sapiens, UniProt P46109); test: Thermal shift assay, CrkL; format: binding; conditions: increase of 2° C. or greater in Tm defined as positive
# Procedure: Thermal Shift Assay—Thermal shift assay is a thermal-denaturation assay, which can measure the thermal stability of a tested protein. When a protein of interest is bound to a ligand (or drug), its melting temperature increases. For each single well assay, CrkL (1 μg per well), SYPRO® Orange (1:500 dilution from original stock), candidate drugs (same final concentration as in AlphaScreen) and reaction buffer (1×TBS) were mixed. The total volume for a single well was 10 ul. The assay was quantified by a melt curve on a real-time PCR machine, using melting temperatures from 20° C. to 95° C.
# To identify specific pCrk inhibitors, thermal shift and in vitro kinase assays were used to distinguish between these possibilities. In a thermal shift assay, each tested protein (purified Ab1 or CrkL) has a melting temperature (Tm) detected by a protein stain dye such as Sypro Orange. After binding to a drug, the Tm of the tested protein will increase as a higher temperature is required to unfold the protein (FIG. 2A). A total of 71 candidate compounds from different libraries were evaluated, which were previously identified by the initial AlphaScreen assay, on both CrkL and Ab1. An increase of 2° C. or greater in Tm (stable increase in three independent experiments) was defined as a positive result in these thermal shift assays.
# [2] = system: HCC HepG2 cells; test: MTT proliferation assay, HepG2; format: cell-based; conditions: 48 hours
# Procedure: (§1) MTT assay—The MTT assay was used to detect cell proliferation. Briefly, cells were plated in a 96-well plate at a density of 50,000 cells/well in 200 μl of culture medium with candidate drugs to be tested (DMSO as a negative control). The treated cells were incubated for four hours a 37° C. with a 5% CO2 incubator to allow dark crystals to form at the bottom of the wells. After culturing for 48 hours, 10 ml of MTT reagent was added to each well and mixed gently for one minute. After aspirating the culture medium from each well, 100 μl of crystal dissolving solution was added to each well and incubated for 10 minutes at RT. The signal was quantified by measuring the absorbance in each sample at 570 nm using a microplate reader.
# [3] = system: pCrkL in MDA-MB-231-LUC cells; test: Flow cytometry of intracellular pCrkL/CrkL, MDA-MB-231-LUC; format: cell-based; conditions: three M Pomiferin for six days
# Text: The cells were labeled with total CrkL or phosphor-CrkL by Alexa Fluor 647 (AF-647) and stained with secondary antibodies conjugated with AF-647 as staining control. […] The star symbol indicates the significance of vehicle vs. Pomiferin of the indicated concentration. *p<0.05, **p<0.005, ***p<0.0005. Data represent mean±SEM, n=4.
# The intracellular pCrkL level from breast cancer cell lines between Pomiferin-treated and vehicle control groups was examined.
# [4] = system: pCrkL (T207) in Sk-Hep1 cells; test: Flow cytometry of H2O2-induced pCrkL, Sk-Hep1; format: cell-based; conditions: 50 uM H2O2 1 hour, then 10 uM compound 24 hours
# Procedure: In this example, Sk-Hep1 cells were pretreated with 50 uM H2O2 for 1 hour to induce activation of pCrkL and were then incubated with 10 uM NC5 or Compound III for 24 hours. pCrkL (T207) expression was determined by flow cytometry.
# [5] = molecular target: Ab1 (Homo sapiens, UniProt P00519); test: Thermal shift assay, Ab1; format: binding
# Procedure: In a thermal shift assay, each tested protein (purified Ab1 or CrkL) has a melting temperature (Tm) detected by a protein stain dye such as Sypro Orange. […] An increase of 2° C. or greater in Tm (stable increase in three independent experiments) was defined as a positive result in these thermal shift assays.
# [6] = molecular target: T1, CrkL; format: biochemical
# Text: Single-molecule Fluorescence Resonance Energy Transfer (smFRET)—Single-molecule Fluorescence Resonance Energy Transfer (smFRET) was applied to monitor conformations of single molecules. CrkL has two cysteines (a relatively rare amino acid), one in its SH2 and another in SH3C domains. CrkL was mixed with a mixture of equal amounts of Alexa555-maleimide and Alexa647-maleimide (Invitrogen, USA) (10× over protein concentration) to randomly label the two cysteines. The labeled protein was purified from an unreacted dye by gel filtration. Molecules with exactly one donor and acceptor are identified in single-molecule data analysis and used for further analysis. […] The FRET change between non-phosphorylated CrkL and phosphorylated CrkL was measured. The dye-labeled protein was used in in vitro kinase assays with different drugs treatments as described above. smFRET measurements were performed with a prism-type total internal refection microscope (TIRF) where FRET efficiency is calculated from measured donor and acceptor intensities (Id and Ia, respectively) by FRET=Ia/(Id+Ia), as described previously. To surface immobilize 6×His tagged CrkL, the protein was added to the biotinylated 6×His antibody (Thermo Scientific Cat #: MA1-80087) bound to streptavidin, which was adsorbed to a quartz slide. A lipid bilayer was used to passivate the quartz surface. Phosphorylation was performed on the immobilized Crk in situ.
# In intramolecular smFRET, non-radiative energy transfer occurs when two fluorophores attached to different parts of one molecule move close together. […] A cysteine-maleimide-based chemistry was used to label both CrkL and mutant (non-phosphorylatable) CrkL-Y207F. CrkL has a cysteine (a relatively rare amino acid) in its SH2 (labeled with AlexaFluor555) and SH3C (labeled with AlexaFluor647). […] Western Blot (WB) and immunoprecipitation (IP) was used to verify that labeled proteins retain the same gross functional properties as wild-type CrkL (e.g., are phosphorylatable and capable of binding SH2 and SH3 ligands). Briefly, site-specific labeled CrkL was mixed with Ab1 in the presence of Mg^2+ and ATP. A single AlphaScreen-identified candidate inhibitor was then added per assay.
# [7] = system: hematopoietic cancer cell lines (K562, NK92-MI, Daudi, KHYG-1); test: MTT assay, hematopoietic cancer cell lines; format: cell-based; conditions: five M Pomiferin for three days; compared with MDA-MD-231-LUC
# Procedure: as §1, with “After culturing for 48 hours, 10 ml of MTT reagent was added to each well and mixed gently for one minute.” left out
# To further test the inhibitory specificity of Pomiferin for specific breast cancer cell lines, The survival percentage was compared between different hematopoietic cancer cell lines and healthy PBMCs.
# [8] = system: PBNK cells killing activity towards MDA-MB-231; test: Cr51 release assay, PBNK killing of MDA-MB-231; format: cell-based; conditions: 1 uM overnight
# Procedure: PBNK cells were incubated with 1 uM NC5 or Compound III overnight, then cells were harvested for Cr51 release assay to check cell cytotoxicity. […] The star symbol indicates the significance of vehicle control vs. NC5 of the indicated E:T ratios. *p<0.05, **p<0.01, n=3.
# T1 sequence (P46109 whole entry): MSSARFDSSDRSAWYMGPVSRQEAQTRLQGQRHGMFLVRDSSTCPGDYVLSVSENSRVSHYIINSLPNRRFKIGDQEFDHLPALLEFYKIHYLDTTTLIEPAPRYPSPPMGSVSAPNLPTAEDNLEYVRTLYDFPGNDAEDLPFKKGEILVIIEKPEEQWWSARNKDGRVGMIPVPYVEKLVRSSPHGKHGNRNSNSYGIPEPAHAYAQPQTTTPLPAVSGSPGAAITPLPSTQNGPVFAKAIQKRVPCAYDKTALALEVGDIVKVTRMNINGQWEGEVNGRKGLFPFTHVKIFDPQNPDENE
# Ab1, sequence (P00519 whole entry): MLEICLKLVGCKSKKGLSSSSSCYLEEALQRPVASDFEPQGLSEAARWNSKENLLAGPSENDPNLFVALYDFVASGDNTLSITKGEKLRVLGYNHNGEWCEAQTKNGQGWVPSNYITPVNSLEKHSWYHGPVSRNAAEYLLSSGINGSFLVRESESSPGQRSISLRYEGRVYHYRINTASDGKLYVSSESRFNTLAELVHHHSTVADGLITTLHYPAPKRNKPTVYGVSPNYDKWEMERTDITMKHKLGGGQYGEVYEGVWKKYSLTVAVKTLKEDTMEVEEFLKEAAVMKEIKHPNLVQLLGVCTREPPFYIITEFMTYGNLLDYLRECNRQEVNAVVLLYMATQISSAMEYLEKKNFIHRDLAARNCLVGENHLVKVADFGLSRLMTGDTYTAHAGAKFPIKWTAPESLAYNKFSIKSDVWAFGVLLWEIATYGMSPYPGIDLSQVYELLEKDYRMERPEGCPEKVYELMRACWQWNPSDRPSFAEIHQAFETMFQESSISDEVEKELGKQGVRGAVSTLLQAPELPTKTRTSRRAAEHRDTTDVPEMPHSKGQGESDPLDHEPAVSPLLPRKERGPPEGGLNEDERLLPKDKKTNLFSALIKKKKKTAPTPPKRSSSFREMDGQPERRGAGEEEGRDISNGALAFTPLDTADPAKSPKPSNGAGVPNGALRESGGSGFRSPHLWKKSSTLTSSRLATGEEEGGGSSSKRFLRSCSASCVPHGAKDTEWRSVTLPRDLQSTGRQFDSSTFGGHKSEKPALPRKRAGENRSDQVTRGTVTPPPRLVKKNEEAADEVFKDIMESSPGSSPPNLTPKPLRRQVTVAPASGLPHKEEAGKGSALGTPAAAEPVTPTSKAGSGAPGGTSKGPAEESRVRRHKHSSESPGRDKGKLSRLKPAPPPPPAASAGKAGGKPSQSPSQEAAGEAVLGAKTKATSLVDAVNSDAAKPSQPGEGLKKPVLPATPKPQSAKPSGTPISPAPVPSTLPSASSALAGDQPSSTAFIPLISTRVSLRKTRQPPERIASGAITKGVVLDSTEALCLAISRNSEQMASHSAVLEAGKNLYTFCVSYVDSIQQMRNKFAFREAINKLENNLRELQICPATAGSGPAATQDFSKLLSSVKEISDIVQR
smiles,measurement,setting,value
"CC(C)=CCc1c2c(c3occ(-c4ccc(O)c(O)c4)c(=O)c3c1O)C=CC(C)(C)O2 [Pomiferin, 3′,4′,5-Trihydroxy-6″,6″-dimethyl-6-(3-methylbut-2-en-1-yl)-6″H-pyrano[2″,3″:7,8]isoflavone]",Tm of CrkL (thermal shift),[1],the Tm of CrkL increased
same,concentration at which HepG2 cell proliferation starts to be significantly inhibited,[2],one
same,total CrkL expression,[3],not many differences in total CrkL expression
same,intracellular pCrkL level,[3]; vs vehicle,reduced the intracellular pCrkL level
same,H2O2 induced pCrkL protein levels,[4],inhibited H2O2 induced pCrkL protein levels
same,binding to Ab1 versus Crk (thermal shift),[5],"specifically binds to Crk, but not Ab1 proteins"
same,inhibition of the higher FRET caused by Ab1 (pCrkL),"[6]; CrkL + Ab1, Mg2+ and ATP",55%
same,FRET signal,"[6]; CrkL about 0.4, CrkL+Ab1 about 0.6",0.5
same,"sensitivity to Pomiferin (survival percentage, MTT)",[7],more resistant to Pomiferin inhibition
same,PBNK cells killing activity (Cr51 release),[8],increased PBNK cells killing activity
